Laboratory results as given in ChEMBL document CHEMBL1158864, “Pyrrolizidine Alkaloids from Senecio r oseus and Senecio h elodes” (J Nat Prod, 1997).
The source made the active and inactive calls. The calls are words filed in the database; no cut-off is given here.

How the values were obtained:
Trichoderma viride = assay: Antimicrobial activity against Trichoderma viride; assay type: functional, organism-based
Escherichia coli = assay: Antimicrobial activity against Escherichia coli ATCC 10536; assay type: functional, organism-based
Aspergillus niger = assay: Antimicrobial activity against Aspergillus niger; assay type: functional, organism-based
[1] = (§1) Toxicity against Artemia salina; assay type: organism-based; details: in vivo
Artemia salina = assay: as §1; assay type: organism-based; details: in vivo

| Compound | Activity (Trichoderma viride) | Activity (Escherichia coli) | Activity (Aspergillus niger) | LC50 [1] [µg/mL] | LC50 (Artemia salina) [µg/mL] |
| --- | --- | --- | --- | --- | --- |
| C[C@@H]1[C@@H](O)[C@]2(C)CC(=O)O[C@@H]3CCN4CC=C(COC(=O)[C@@]1(C)O2)[C@H]34 | inactive | inactive | inactive | > 300 |  |
| C[C@@H]1C[C@]2(C)CC(=O)O[C@@H]3CCN4CC=C(COC(=O)[C@@]1(C)O2)[C@H]34 [RETROISOSENINE] |  |  |  |  | > 300 |
| C[C@@H]1C[C@]2(C)CC(=O)O[C@@H]3CCN4CC=C(COC(=O)[C@@]1(C)O2)[C@H]34 [RETROISOSENINE HYDRCHLORIDE] |  |  |  | > 300 |  |
| C[C@@H]1C[C@]2(C)CC(=O)O[C@@H]3CCN4CC[C@H](COC(=O)[C@@]1(C)O2)[C@H]34 [MULGEDIIFOLINE] | inactive | inactive | inactive | > 300 |  |
| C[C@@H]1C[C@]2(C)CC(=O)O[C@@H]3CCN4CC=C(COC(=O)[C@@]1(C)O2)[C@H]34 | inactive | inactive | inactive |  |  |
